Legend:
PHBPU [1] = assay: Post-emergence herbicidal action against PHBPU; type: in vivo, Pharbitis purpurea
Summary of the method: (§1)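 Greenhouse plants in sandy loam were sprayed at the one-leaf stage, 2 to 3 weeks after sowing, with WP or EC formulations as aqueous suspension or emulsion (600 to 800 l/ha water, 0.2% wetting agent). Visual damage was scored about 3 weeks later versus untreated controls, 0% = like control, 100% = dead.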

SETVI [2] = assay: Pre-emergence herbicidal action against SETVI; type: in vivo, Setaria viridis; conditions: dosage 80 g/ha
Summary of the method: (§2)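 Pre-emergence soil-surface spray of formulated compound (WP or EC; 600 to 800 l/ha; 0.2% wetting agent) over seeds sown in sandy loam. After 3 weeks under greenhouse conditions, damage is estimated visually in percent against untreated plants.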

SETVI [3] = assay: Post-emergence herbicidal action against SETVI; type: in vivo, Setaria viridis; conditions: dosage 20 g/ha
Summary of the method: as §1

DIGSA [4] = assay: Post-emergence herbicidal action against DIGSA; type: in vivo, Digitaria sanguinalis
Summary of the method: as §1

AVEFA = assay: Pre-emergence herbicidal action against AVEFA; type: in vivo, Avena fatua; conditions: 80 g/ha, pre-emergence
Summary of the method: as §2

MATIN = assay: Pre-emergence herbicidal action against MATIN; type: in vivo, Matricaria inodora
Summary of the method: as §2

AMARE [5] = assay: Post-emergence herbicidal action against AMARE; type: in vivo, Amaranthus retroflexus; conditions: 20 g/ha, visual assessment about 3 weeks after treatment, 100% = plants have died, 0% = like control plants
Summary of the method: as §1

ALOMY = assay: Post-emergence herbicidal action against ALOMY; type: in vivo, Alopecurus myosuroides; conditions: dosage 20 g/ha, visual assessment about 3 weeks after treatment vs untreated controls
Summary of the method: as §1

ABUTH [6] = assay: Pre-emergence herbicidal action against ABUTH; type: in vivo, Abutilon theophrasti
Summary of the method: as §2

VIOTR [7] = assay: Post-emergence herbicidal action against VIOTR; type: in vivo, Viola tricolor; conditions: 20 g/ha
Summary of the method: as §1

ECHCG [8] = assay: Post-emergence herbicidal action against ECHCG; type: in vivo, Echinochloa crus-galli
Summary of the method: as §1

VIOTR [9] = assay: Pre-emergence herbicidal action against VIOTR; type: in vivo, Viola tricolor
Summary of the method: as §2

AMARE [10] = assay: Pre-emergence herbicidal action against AMARE; type: in vivo, Amaranthus retroflexus
Summary of the method: as §2

PHBPU [11] = assay: Pre-emergence herbicidal action against PHBPU; type: in vivo, Pharbitis purpurea; conditions: dosage 80 g/ha
Summary of the method: as §2

DIGSA [12] = assay: Pre-emergence herbicidal action against DIGSA; type: in vivo, Digitaria sanguinalis
Summary of the method: as §2

ECHCG [13] = assay: Pre-emergence herbicidal action against ECHCG; type: in vivo, Echinochloa crus-galli
Summary of the method: as §2

ABUTH [14] = assay: Post-emergence herbicidal action against ABUTH; type: in vivo, Abutilon theophrasti; conditions: visual assessment about 3 weeks after treatment vs untreated controls
Summary of the method: as §1

STEME [15] = assay: Post-emergence herbicidal action against STEME; type: in vivo, Stellaria media
Summary of the method: as §1

VERPE = assay: Post-emergence herbicidal action against VERPE; type: in vivo, Veronica persica; conditions: 20 g/ha
Summary of the method: as §1

STEME [16] = assay: Pre-emergence herbicidal action against STEME; type: in vivo, Stellaria media
Summary of the method: as §2

HORMU = assay: Post-emergence herbicidal action against HORMU; type: in vivo, Hordeum murinum; conditions: dosage 20 g/ha
Experimental: Seeds of monocotyledonous and dicotyledonous weed and crop plants are laid out in sandy loam soil in wood-fiber pots, covered with soil and cultivated in a greenhouse under good growth conditions. 2 to 3 weeks after sowing, the test plants are treated at the one-leaf stage. The compounds of the invention, formulated in the form of wettable powders (WP) or as emulsion concentrates (EC), are then sprayed onto the green parts of the plants in the form of an aqueous suspension or emulsion at a water application rate equivalent to 600 to 800 l/ha, with addition of 0.2% wetting agent. After the test plants have been left to stand in the greenhouse under optimal growth conditions for about 3 weeks, the action of the preparations is assessed visually in comparison to untreated controls (herbicidal action in percent (%): 100% activity=the plants have died, 0% activity=like control plants). […] The tables below illustrate, in an illustrative manner, the post-emergence herbicidal action of the compounds of the invention, the herbicidal activity being stated in percent.

[17] = 80 g/ha, scored visually after 3 weeks vs untreated controls (100% = plants have died, 0% = like control plants)

SMILES: CCNC(=O)c1c(C(F)(F)F)ccc(C(=O)Nc2nnco2)c1SC [Example 5-59]
- Post-emergence action against PHBPU in % (PHBPU [1]; dosage 5 g/ha): 80%
- Post-emergence action against PHBPU in % (PHBPU [1]; dosage 20 g/ha): 90%
- Pre-emergence action against SETVI in % (SETVI [2]): 100%
- Post-emergence action against SETVI in % (SETVI [3]): 90%
- Post-emergence action against DIGSA in % (DIGSA [4]; 5 g/ha): 90%
- Post-emergence action against DIGSA (DIGSA [4]; 20 g/ha): 90%
- Pre-emergence action against AVEFA in % (AVEFA): 80%
- Pre-emergence action against MATIN in % (MATIN; dosage 20 g/ha): 80%
- Pre-emergence action against MATIN in % (MATIN; dosage 80 g/ha): 90%
- Post-emergence action at 20 g/ha against AMARE in % (AMARE [5]): 90%
- Post-emergence action against ALOMY in % (ALOMY): 80%
- Pre-emergence action against ABUTH (herbicidal activity) (ABUTH [6]; [17]): 100%
- Pre-emergence action against ABUTH (herbicidal activity in percent) (ABUTH [6]; dosage 20 g/ha, scored visually after 3 weeks vs untreated controls, 100% = plants have died, 0% = like control plants): 100%
- Post-emergence action against VIOTR in % (VIOTR [7]): 80%
- Post-emergence action against ECHCG in % (ECHCG [8]; dosage 5 g/ha): 80%
- Post-emergence action against ECHCG in % (ECHCG [8]; dosage 20 g/ha): 90%
- Pre-emergence action against VIOTR in % (VIOTR [9]; dosage 20 g/ha): 100%
- Pre-emergence action against VIOTR in % (VIOTR [9]; dosage 80 g/ha): 100%
- Pre-emergence action against AMARE in % (AMARE [10]; 20 g/ha, scored visually after 3 weeks vs untreated controls, 100% = plants have died, 0% = like control plants): 100%
- Pre-emergence action against AMARE in % (AMARE [10]; [17]): 100%
- Pre-emergence action against PHBPU in % (PHBPU [11]): 80%
- Pre-emergence action against DIGSA in % (DIGSA [12]; dosage 20 g/ha): 100%
- Pre-emergence action against DIGSA in % (DIGSA [12]; dosage 80 g/ha): 100%
- Pre-emergence action against ECHCG in % (ECHCG [13]; 20 g/ha): 80%
- Pre-emergence action against ECHCG in % (ECHCG [13]; 80 g/ha): 100%
- Post-emergence action against ABUTH in % (ABUTH [14]; dosage 5 g/ha): 90%
- Post-emergence action against ABUTH in % (ABUTH [14]; dosage 20 g/ha): 90%
- Post-emergence action against STEME in % (STEME [15]; 20 g/ha): 100%
- Post-emergence action against STEME in % (STEME [15]; dosage 5 g/ha): 90%
- Post-emergence action against VERPE in % (VERPE): 80%
- Pre-emergence action against STEME in % (STEME [16]; dosage 20 g/ha): 90%
- Pre-emergence action against STEME in % (STEME [16]; dosage 80 g/ha): 100%
- Post-emergence action against HORMU in % (HORMU): 80%
